Experiments:
[1] = biological target: T1, human BTK kinase (hBTK) (Homo sapiens, UniProt Q06187); assay: BTK kinase inhibition assay (Kinase Profiler radiometric protein kinase assay, Eurofins); format: biochemical; conditions: radiometric [γ-33P-ATP] assay, 40 minutes at room temperature, 250 μM substrate
T1 construct: purchased Eurofins Pharma Discovery Services UK Limited (contract assay, Kinase Profiler)
Protocol: In vitro potency of selected compound was defined against human BTK kinase (hBTK) using Kinase Profiler radiometric protein kinase assays performed at Eurofins Pharma Discovery Services UK Limited.
hBTK kinase is diluted in buffer and all compounds were prepared to 50× final assay concentration in 100% DMSO. This working stock of the compound was added to the assay well as the first component in the reaction, followed by the remaining components as detailed in the assay protocol listed above. The reaction was initiated by the addition of the MgATP mix. The kinase reaction was performed at room temperature for 40 minutes in presence of 250 μM substrate, 10 mM MgAcetate, [γ-33P-ATP] (specific activity approx. 500 cpm/pmol, concentration as required) and variable test article concentrations. The ATP concentrations in the assays were with 15 μM of the apparent. The reaction was stopped by the addition of 3% phosphoric acid solution. 10 μL of the reaction is then spotted onto a P30 filtermat and washed three times for 5 minutes in 75 mM phosphoric acid and once in methanol prior to drying and scintillation counting. In addition positive control wells contain all components of the reaction, except the compound of interest; however, DMSO (at a final concentration of 2%) were included in these wells to control for solvent effects as well as blank wells contain all components of the reaction, with a reference inhibitor replacing the compound of interest. This abolishes kinase activity and establishes the base-line (0% kinase activity remaining).

[2] = test system: TMD-8 human activated B cell diffuse large B cell lymphoma cells; assay: TMD-8 survival assay; format: cell-based; conditions: TMD8, TMD-8 cells, 72 h treatment, Cell Titer-Glo
Protocol: BTK inhibitors affect the survival of B-cell lymphomas. TMD-8 human activated B cell diffuse large B cell lymphoma cells were seeded in 96-well plates at a density of 20,000 cells/well in HyClone RPMI supplemented with 10% FBS (Fisher)/1% Penicillin/Streptomycin (HyClone) and incubated at 37° C., 5% CO2. Cells were treated in triplicate with 1,000 nM or 100 nM curves of compounds for 72 h. Cell survival was measured by Cell Titer-Glo Luminescent Assay (Promega). EC50 values (50% proliferation in the presence of compound as compared to vehicle treated controls) were calculated from dose response compound curves using GraphPad Prism Software.

[3] = biological target: BTK (Homo sapiens, UniProt Q06187); assay: BTK enzyme off-rate determination (dilution kinetic experiments); format: biochemical; conditions: 10-30 nM compound pre-incubated with 7 nM enzyme, 1000 uM ATP, 1 h, diluted 250×, monitored 8 h
Sequence of BTK (Q06187 whole entry): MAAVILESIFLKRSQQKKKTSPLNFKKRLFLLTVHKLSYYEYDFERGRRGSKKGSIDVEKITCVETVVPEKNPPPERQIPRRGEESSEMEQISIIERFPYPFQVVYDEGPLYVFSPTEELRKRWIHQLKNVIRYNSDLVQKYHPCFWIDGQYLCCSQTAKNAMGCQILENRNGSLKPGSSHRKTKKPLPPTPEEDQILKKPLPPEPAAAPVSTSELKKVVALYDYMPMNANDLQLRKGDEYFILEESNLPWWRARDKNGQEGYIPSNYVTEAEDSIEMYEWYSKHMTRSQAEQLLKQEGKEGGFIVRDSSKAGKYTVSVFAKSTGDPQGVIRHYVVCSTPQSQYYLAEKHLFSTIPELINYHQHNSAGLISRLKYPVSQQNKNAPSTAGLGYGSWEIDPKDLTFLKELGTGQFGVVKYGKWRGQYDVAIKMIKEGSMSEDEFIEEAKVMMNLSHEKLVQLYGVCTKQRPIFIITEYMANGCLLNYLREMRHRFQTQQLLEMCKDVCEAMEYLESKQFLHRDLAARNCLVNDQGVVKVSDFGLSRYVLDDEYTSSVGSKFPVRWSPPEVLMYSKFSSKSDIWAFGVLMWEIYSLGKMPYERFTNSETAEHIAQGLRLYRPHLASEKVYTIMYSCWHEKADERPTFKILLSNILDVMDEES
Protocol: 10-30 nM compound was pre-incubated with 7 nM enzyme in the presence of 1000 uM ATP for 1 h. The [I]-[E] complex was diluted 250× into an assay buffer with 1000 uM ATP and 2uM substrate peptide. Enzyme activity in the diluted samples was monitored in real time assay over period of 8 h. The progress curves were fit with time dependent equation to determine apparent Kobs and residence time of the compound. […] Consistent with covalent inhibition of BTK.

[4] = test system: Splenocytes; assay: Splenic cell proliferation assay (anti-IgM stimulated); format: cell-based; conditions: Splenocyte; CD1 mouse splenocytes, 1 h pre-treatment, 2.5 ug/ml anti-IgM F(ab')2 for 72 h, Cell Titer-Glo; read-out: EC50 (inhibition of splenic cell proliferation)
Protocol: Proliferation of splenocytes in response to anti-IgM can be blocked by inhibition of Btk.
Splenocytes were obtained from 6 week old male CD1 mice (Charles River Laboratories Inc.). Mouse spleens were manually disrupted in PBS and filtered using a 70 um cell strainer followed by ammonium chloride red blood cell lysis. Cells were washed, resuspended in Splenocyte Medium (HyClone RPMI supplemented with 10% heat-inactivated FBS, 0.5× non-essential amino acids, 10 mM HEPES, 50 uM beta mercaptoethanol) and incubated at 37° C., 5% CO2 for 2 h to remove adherent cells. Suspension cells were seeded in 96 well plates at 50,000 cells per well and incubated at 37° C., 5% CO2 for 1 h. Splenocytes were pre-treated in triplicate with 10,000 nM curves of Formula 1 compounds for 1 h, followed by stimulation of cell proliferation with 2.5 ug/ml anti-IgM F(ab′)2 (Jackson ImmunoResearch) for 72 h. Cell proliferation was measured by Cell Titer-Glo Luminescent Assay (Promega). EC50 values (50% proliferation in the presence of compound as compared to vehicle treated controls) were calculated from dose response compound curves using GraphPad Prism Software EC50 values are reported in Table 3: […]

T1 sequence (Q06187 whole entry): as above

IC50 [1]: 8 nM | Residence time half life (1/Kobs) [3]: >10 h | residence time ([3]; read-out: Residence time half life (1/Kobs)): > 600 min
SMILES: C=CC(=O)N[C@H]1C[C@@H](n2nc(-c3ccc(Oc4cc(F)cc(OCc5cnc(C)nc5)c4)cc3)c3c(N)ncnc32)C1 [Compound 27]
EC50 [2]: 4.7 nM | EC50 [4]: 0.8 nM

— patent US20180179210A1, “Inhibitors of the TEC Kinase Enzyme Family” (Pharmascience Inc., priority 2015, published 2018)
